Test results as given in patent publication US10583119B2, “Compounds, compositions and methods for making the same” (Signum Biosciences, Inc., priority 2008, dated 2020).

Test system: Thyl-alpha-synuclein transgenic mice
Experiment: Locomotor tests (open field, rota-rod) in alpha-synuclein over-expressing mice
Format: in vivo
Conditions: 0.001% diet (p=0.068)
Description: Transgenic mice over-expressing the full length human alpha-synuclein have been described previously, and are excellent models for sensorimotor tests that are sensitive to alterations in the nigrostriatal dopaminergic system [Fleming, S. M. et. al, J. Neurosci. 24, 9434-40, (2004)].
Thyl-alpha-synuclein transgenic mice (9-12 weeks old) and age-matched wild type mice were housed in clear plastic cages in a temperature-, and humidity-controlled environment with a 12 hour-light/dark cycle (light switched on at 7 a.m.), and were maintained on an ad libitum diet of lab chow and water. The animal feeds used were either normal (Control) or formulated with Compound I-63 at 0.001% and 0.1%. […]
Locomotor activity was assessed in an open field paradigm by a Digiscan activity monitor utilizing a grid of infrared beams that record the location and path of the animal (horizontal activity) as well as the number of rearing movements (vertical activity). […] Each mouse was then placed in the middle of an open field chamber (42×42 cm acrylic animal cages, AccuScan Instruments) and locomotion was recorded for 10 min. The infrared light beam sensors were connected to a computer that recorded animal position every millisecond. […] The total number of squares crossed by each mouse was recorded and average horizontal and vertical activities was determined for each group of mice. […]

## CCCCCCCCCCCCCCCCCCCC(=O)NCCc1c[nH]c2ccc(O)cc12 [Compound I-63, N-(2-(5-hydroxy-1H-indol-3-yl)ethyl)icosanamide]
  horizontal activity: increase
